In brackets after ≈: the same amount, converted by molar mass.
System: not listed separately
Assay: in vivo
Details: rat, plasma, po, 5 mg/kg

| SMILES | half-life [h] |
| --- | --- |
| Cc1c(N2CC[C@@H](N)C2)c(F)cn2c(=O)c(C(=O)O)cc(C3CC3)c12 | 1.1 |

Target: T1, DNA gyrase (Staphylococcus aureus) (UniProt P0A0K8+P20831)
Assay: In vitro antibacterial activity against gram-positive organism Staphylococcus aureus NCTC-10649M
Type: functional
Details: not given

T1 sequence (P0A0K8 2-644 limits assumed): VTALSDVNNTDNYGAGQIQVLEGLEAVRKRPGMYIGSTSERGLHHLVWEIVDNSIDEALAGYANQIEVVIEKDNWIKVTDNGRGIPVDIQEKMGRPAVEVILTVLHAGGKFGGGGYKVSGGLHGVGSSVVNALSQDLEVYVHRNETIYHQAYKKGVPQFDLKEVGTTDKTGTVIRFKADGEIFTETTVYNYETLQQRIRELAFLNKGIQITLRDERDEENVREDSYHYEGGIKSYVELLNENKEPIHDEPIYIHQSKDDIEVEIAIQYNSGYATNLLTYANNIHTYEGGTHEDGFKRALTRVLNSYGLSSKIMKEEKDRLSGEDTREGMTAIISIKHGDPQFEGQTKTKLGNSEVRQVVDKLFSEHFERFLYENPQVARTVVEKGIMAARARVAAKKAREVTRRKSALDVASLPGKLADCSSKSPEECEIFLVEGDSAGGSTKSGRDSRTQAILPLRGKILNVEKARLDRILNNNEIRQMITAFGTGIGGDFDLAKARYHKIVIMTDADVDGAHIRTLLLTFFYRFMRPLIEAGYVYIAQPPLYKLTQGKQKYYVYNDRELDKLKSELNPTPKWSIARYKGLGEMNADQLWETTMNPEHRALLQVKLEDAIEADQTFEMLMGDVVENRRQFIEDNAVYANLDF
T1 sequence (P20831 whole entry partner): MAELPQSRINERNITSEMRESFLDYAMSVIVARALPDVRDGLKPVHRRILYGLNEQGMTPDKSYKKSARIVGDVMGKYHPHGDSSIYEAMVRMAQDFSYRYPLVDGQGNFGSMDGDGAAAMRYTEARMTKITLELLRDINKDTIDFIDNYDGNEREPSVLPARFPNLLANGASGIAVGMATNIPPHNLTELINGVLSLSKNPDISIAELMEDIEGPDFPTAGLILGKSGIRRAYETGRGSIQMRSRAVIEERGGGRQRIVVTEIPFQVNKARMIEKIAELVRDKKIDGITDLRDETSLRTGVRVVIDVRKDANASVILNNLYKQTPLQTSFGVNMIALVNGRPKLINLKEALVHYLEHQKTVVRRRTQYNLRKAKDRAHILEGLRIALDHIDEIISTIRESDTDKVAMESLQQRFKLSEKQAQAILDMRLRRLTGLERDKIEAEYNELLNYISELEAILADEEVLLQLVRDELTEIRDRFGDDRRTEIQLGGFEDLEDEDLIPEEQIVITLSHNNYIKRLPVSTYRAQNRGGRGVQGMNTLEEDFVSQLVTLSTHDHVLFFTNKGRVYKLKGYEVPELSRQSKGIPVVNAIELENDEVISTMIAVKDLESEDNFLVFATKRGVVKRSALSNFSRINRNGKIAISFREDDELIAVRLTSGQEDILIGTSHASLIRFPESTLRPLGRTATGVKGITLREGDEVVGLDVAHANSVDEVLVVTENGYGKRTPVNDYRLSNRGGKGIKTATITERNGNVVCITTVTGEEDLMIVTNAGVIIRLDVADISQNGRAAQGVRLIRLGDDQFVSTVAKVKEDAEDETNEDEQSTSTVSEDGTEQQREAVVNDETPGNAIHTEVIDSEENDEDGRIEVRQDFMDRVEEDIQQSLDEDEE

| SMILES | MIC [µg/mL] |
| --- | --- |
| NC1CCN(c2c(F)cn3c(=O)c(C(=O)O)cc(C4CC4)c3c2Cl)C1 (stereo not drawn) | 0.2 (≈ 0.547 µM) |
| Cc1c(N2CC[C@@H](N)C2)c(F)cn2c(=O)c(C(=O)O)cc(C3CC3)c12 | 0.02 (≈ 0.0579 µM) |

Target: T2, DNA gyrase (Escherichia coli) (UniProt P0AES6+P0AES4)
Assay: In vitro antibacterial activity against gram-negative organism Prov. stuartii CMX-640
Type: functional
Details: Providencia stuartii

| SMILES | MIC [µg/mL] |
| --- | --- |
| NC1CCN(c2c(F)cn3c(=O)c(C(=O)O)cc(C4CC4)c3c2Cl)C1 (stereo not drawn) | 3.1 (≈ 8.47 µM) |
| Cc1c(N2CC[C@@H](N)C2)c(F)cn2c(=O)c(C(=O)O)cc(C3CC3)c12 | 0.2 (≈ 0.579 µM) |

Target: T1, DNA gyrase (Staphylococcus aureus)
Assay: In vivo efficacy against Staphylococcus aureus NCTC-10649M after oral administration
Type: functional, organism-based
Details: not given

| SMILES | ED50 [mg/kg] |
| --- | --- |
| NC1CCN(c2c(F)cn3c(=O)c(C(=O)O)cc(C4CC4)c3c2Cl)C1 (stereo not drawn) | 5.7 |
| Cc1c(N2CC[C@@H](N)C2)c(F)cn2c(=O)c(C(=O)O)cc(C3CC3)c12 | < 3.1 |

System: Streptococcus pneumoniae
Assay: (§1) In vivo efficacy against Strep. administration
Type: functional
Details: not given

| SMILES | ED50 [mg/kg] |
| --- | --- |
| NC1CCN(c2c(F)cn3c(=O)c(C(=O)O)cc(C4CC4)c3c2Cl)C1 (stereo not drawn) | 11.1 |

System: not listed separately
Assay: in vivo
Details: rat, po, 5 mg/kg
Description: Oral bioavailability in rat (dose 5 mg/kg)

| SMILES | bioavailability [%] |
| --- | --- |
| Cc1c(N2CC[C@@H](N)C2)c(F)cn2c(=O)c(C(=O)O)cc(C3CC3)c12 | 10 |

System: Streptococcus pyogenes
Assay: In vitro antibacterial activity against gram-positive organism Streptococcus pyogenes EES61
Type: functional
Details: Streptococcus pyogenes; read-out: MIC

| SMILES | MIC [µg/mL] |
| --- | --- |
| NC1CCN(c2c(F)cn3c(=O)c(C(=O)O)cc(C4CC4)c3c2Cl)C1 (stereo not drawn) | 0.39 (≈ 1.07 µM) |
| Cc1c(N2CC[C@@H](N)C2)c(F)cn2c(=O)c(C(=O)O)cc(C3CC3)c12 | 0.05 (≈ 0.145 µM) |

System: not listed separately
Assay: In vitro antibacterial activity against gram-negative organism Pseudomonas aeruginosa 5007
Type: functional
Details: Pseudomonas aeruginosa; read-out: MIC

| SMILES | MIC [µg/mL] |
| --- | --- |
| NC1CCN(c2c(F)cn3c(=O)c(C(=O)O)cc(C4CC4)c3c2Cl)C1 (stereo not drawn) | 0.39 (≈ 1.07 µM) |
| Cc1c(N2CC[C@@H](N)C2)c(F)cn2c(=O)c(C(=O)O)cc(C3CC3)c12 | 0.05 (≈ 0.145 µM) |

System: not listed separately
Assay: In vitro antibacterial activity against gram-negative organism Pseudomonas aeruginosa DPHD-2862
Type: functional
Details: Pseudomonas aeruginosa; read-out: MIC

| SMILES | MIC [µg/mL] |
| --- | --- |
| NC1CCN(c2c(F)cn3c(=O)c(C(=O)O)cc(C4CC4)c3c2Cl)C1 (stereo not drawn) | 6.2 (≈ 16.9 µM) |
| Cc1c(N2CC[C@@H](N)C2)c(F)cn2c(=O)c(C(=O)O)cc(C3CC3)c12 | 1.56 (≈ 4.52 µM) |

Target: T2, DNA gyrase (Escherichia coli)
Assay: In vitro antibacterial activity against gram-positive organism Enterococcus faecium ATCC 8043
Type: functional
Details: not given

| SMILES | MIC [µg/mL] |
| --- | --- |
| NC1CCN(c2c(F)cn3c(=O)c(C(=O)O)cc(C4CC4)c3c2Cl)C1 (stereo not drawn) | 0.39 (≈ 1.07 µM) |
| Cc1c(N2CC[C@@H](N)C2)c(F)cn2c(=O)c(C(=O)O)cc(C3CC3)c12 | 0.05 (≈ 0.145 µM) |

Target: T2, DNA gyrase (Escherichia coli)
Assay: In vitro antibacterial against gram-negative organism Escherichia coli JUHL
Type: functional
Details: Escherichia coli K-12

| SMILES | MIC [µg/mL] |
| --- | --- |
| NC1CCN(c2c(F)cn3c(=O)c(C(=O)O)cc(C4CC4)c3c2Cl)C1 (stereo not drawn) | 0.05 (≈ 0.137 µM) |
| Cc1c(N2CC[C@@H](N)C2)c(F)cn2c(=O)c(C(=O)O)cc(C3CC3)c12 | 0.005 (≈ 0.0145 µM) |

System: not listed separately
Assay: Maximum plasma concentration in rats after an oral dose of 5 mg/kg
Details: rat

| SMILES | Cmax [ng/mL] |
| --- | --- |
| Cc1c(N2CC[C@@H](N)C2)c(F)cn2c(=O)c(C(=O)O)cc(C3CC3)c12 | 80 |

Target: T2, DNA gyrase (Escherichia coli)
Assay: In vivo efficacy against Escherichia coli JUHL by subcutaneous administration
Type: functional, organism-based
Details: Escherichia coli K-12

| SMILES | ED50 [mg/kg] |
| --- | --- |
| NC1CCN(c2c(F)cn3c(=O)c(C(=O)O)cc(C4CC4)c3c2Cl)C1 (stereo not drawn) | 1 |
| Cc1c(N2CC[C@@H](N)C2)c(F)cn2c(=O)c(C(=O)O)cc(C3CC3)c12 | 0.3 |

Target: T2, DNA gyrase (Escherichia coli)
Assay: not given
Details: Escherichia coli K-12

| SMILES | CC50 [µg/mL] |
| --- | --- |
| NC1CCN(c2c(F)cn3c(=O)c(C(=O)O)cc(C4CC4)c3c2Cl)C1 (stereo not drawn) | 0.31 (≈ 0.847 µM) |
| Cc1c(N2CC[C@@H](N)C2)c(F)cn2c(=O)c(C(=O)O)cc(C3CC3)c12 | 0.15 (≈ 0.434 µM) |

Target: T1, DNA gyrase (Staphylococcus aureus)
Assay: In vitro antibacterial activity against gram-positive organism Staphylococcus aureus 1775
Type: functional
Details: not given

| SMILES | MIC [µg/mL] |
| --- | --- |
| NC1CCN(c2c(F)cn3c(=O)c(C(=O)O)cc(C4CC4)c3c2Cl)C1 (stereo not drawn) | 6.2 (≈ 16.9 µM) |
| Cc1c(N2CC[C@@H](N)C2)c(F)cn2c(=O)c(C(=O)O)cc(C3CC3)c12 | 1.56 (≈ 4.52 µM) |

System: not listed separately
Assay: In vivo efficacy against Pseudomonas aeruginosa 5007 after subcutaneous administration
Type: functional
Details: Pseudomonas aeruginosa, sc; read-out: ED50

| SMILES | ED50 [mg/kg] |
| --- | --- |
| NC1CCN(c2c(F)cn3c(=O)c(C(=O)O)cc(C4CC4)c3c2Cl)C1 (stereo not drawn) | 3.3 |
| Cc1c(N2CC[C@@H](N)C2)c(F)cn2c(=O)c(C(=O)O)cc(C3CC3)c12 | 2.4 |

Target: T1, DNA gyrase (Staphylococcus aureus)
Assay: In vitro antibacterial activity against gram-positive organism Staphylococcus aureus ATCC 6538p
Type: functional
Details: not given

| SMILES | MIC [µg/mL] |
| --- | --- |
| NC1CCN(c2c(F)cn3c(=O)c(C(=O)O)cc(C4CC4)c3c2Cl)C1 (stereo not drawn) | 0.2 (≈ 0.547 µM) |
| Cc1c(N2CC[C@@H](N)C2)c(F)cn2c(=O)c(C(=O)O)cc(C3CC3)c12 | 0.01 (≈ 0.029 µM) |

Target: T2, DNA gyrase (Escherichia coli)
Assay: In vivo efficacy against Escherichia coli JUHL after oral administration
Type: functional, organism-based
Details: Escherichia coli K-12

| SMILES | ED50 [mg/kg] |
| --- | --- |
| NC1CCN(c2c(F)cn3c(=O)c(C(=O)O)cc(C4CC4)c3c2Cl)C1 (stereo not drawn) | 5.6 |
| Cc1c(N2CC[C@@H](N)C2)c(F)cn2c(=O)c(C(=O)O)cc(C3CC3)c12 | 1 |

Target: T2, DNA gyrase (Escherichia coli)
Assay: In vitro antibacterial activity against gram-negative organism […] ATCC 13048
Type: functional
Details: Enterobacter aerogenes

| SMILES | MIC [µg/mL] |
| --- | --- |
| NC1CCN(c2c(F)cn3c(=O)c(C(=O)O)cc(C4CC4)c3c2Cl)C1 (stereo not drawn) | 0.1 (≈ 0.273 µM) |
| Cc1c(N2CC[C@@H](N)C2)c(F)cn2c(=O)c(C(=O)O)cc(C3CC3)c12 | 0.01 (≈ 0.029 µM) |

Target: T1, DNA gyrase (Staphylococcus aureus)
Assay: In vivo efficacy against Staphylococcus aureus NCTC-10649M after subcutaneous administration
Type: functional, organism-based
Details: not given

| SMILES | ED50 [mg/kg] |
| --- | --- |
| NC1CCN(c2c(F)cn3c(=O)c(C(=O)O)cc(C4CC4)c3c2Cl)C1 (stereo not drawn) | 1.6 |
| Cc1c(N2CC[C@@H](N)C2)c(F)cn2c(=O)c(C(=O)O)cc(C3CC3)c12 | 0.9 |

System: Pseudomonas aeruginosa
Assay: In vivo efficacy against Pseudomonas aeruginosa 5007 following p.o. administration.
Details: not given

| SMILES | ED50 [mg/kg] |
| --- | --- |
| NC1CCN(c2c(F)cn3c(=O)c(C(=O)O)cc(C4CC4)c3c2Cl)C1 (stereo not drawn) | 17 |
| Cc1c(N2CC[C@@H](N)C2)c(F)cn2c(=O)c(C(=O)O)cc(C3CC3)c12 | 6.2 |

Target: T2, DNA gyrase (Escherichia coli)
Assay: In vitro antibacterial activity against gram-positive organism Streptococcus bovis A-5169
Type: functional
Details: Streptococcus equinus

| SMILES | MIC [µg/mL] |
| --- | --- |
| NC1CCN(c2c(F)cn3c(=O)c(C(=O)O)cc(C4CC4)c3c2Cl)C1 (stereo not drawn) | 0.78 (≈ 2.13 µM) |
| Cc1c(N2CC[C@@H](N)C2)c(F)cn2c(=O)c(C(=O)O)cc(C3CC3)c12 | 0.1 (≈ 0.29 µM) |

Target: T2, DNA gyrase (Escherichia coli)
Assay: In vitro antibacterial activity against gram-negative organism Klebsiella pneumoniae ATCC 8045
Type: functional
Details: not given

| SMILES | MIC [µg/mL] |
| --- | --- |
| NC1CCN(c2c(F)cn3c(=O)c(C(=O)O)cc(C4CC4)c3c2Cl)C1 (stereo not drawn) | 0.05 (≈ 0.137 µM) |
| Cc1c(N2CC[C@@H](N)C2)c(F)cn2c(=O)c(C(=O)O)cc(C3CC3)c12 | 0.005 (≈ 0.0145 µM) |

System: Streptococcus pneumoniae
Assay: as §1
Type: functional
Details: not given

| SMILES | ED50 [mg/kg] |
| --- | --- |
| NC1CCN(c2c(F)cn3c(=O)c(C(=O)O)cc(C4CC4)c3c2Cl)C1 (stereo not drawn) | 8.5 |
